Data taken from paper PMC3423592 (ACS chemical biology, 2012).
pKi: −log10 of the molar value. Values belong to the molecule of their own block, whether it stands above or below them.

How the values were obtained:
[1] = target: c-Src (Gallus gallus, UniProt P00523); assay: continuous fluorimetric biochemical inhibition assay, c-Src; design: species or system chicken; details: read-out: Ki, c-Src; ATP = 100 μM, substrate peptide = 45 μM
[2] = test system: HT-29; assay: cell growth inhibition assay; type: cell-based; details: read-out: GI50, HT-29; 72 h, WST-1
[3] = test system: SK-BR-3; assay: cell growth inhibition assay; type: cell-based; details: read-out: GI50, SK-BR-3; 72 h, WST-1
[4] = test system: MCF7; assay: cell growth inhibition assay; type: cell-based; details: read-out: GI50, MCF7; 72 h, WST-1
[5] = test system: MDA-MB-453; assay: cell growth inhibition assay; type: cell-based; details: read-out: GI50, MDA-MB-453; 72 h, WST-1
[6] = test system: NIH-3T3; assay: cell growth inhibition assay; type: cell-based; details: read-out: GI50, NIH-3T3; 72 h, WST-1; non-cancer cell line
[7] = target: ErbB2 (Homo sapiens, UniProt P04626); assay: KINOMEscan profiling, ErbB2; details: 10 μM
ErbB2, sequence (P04626 23-1255): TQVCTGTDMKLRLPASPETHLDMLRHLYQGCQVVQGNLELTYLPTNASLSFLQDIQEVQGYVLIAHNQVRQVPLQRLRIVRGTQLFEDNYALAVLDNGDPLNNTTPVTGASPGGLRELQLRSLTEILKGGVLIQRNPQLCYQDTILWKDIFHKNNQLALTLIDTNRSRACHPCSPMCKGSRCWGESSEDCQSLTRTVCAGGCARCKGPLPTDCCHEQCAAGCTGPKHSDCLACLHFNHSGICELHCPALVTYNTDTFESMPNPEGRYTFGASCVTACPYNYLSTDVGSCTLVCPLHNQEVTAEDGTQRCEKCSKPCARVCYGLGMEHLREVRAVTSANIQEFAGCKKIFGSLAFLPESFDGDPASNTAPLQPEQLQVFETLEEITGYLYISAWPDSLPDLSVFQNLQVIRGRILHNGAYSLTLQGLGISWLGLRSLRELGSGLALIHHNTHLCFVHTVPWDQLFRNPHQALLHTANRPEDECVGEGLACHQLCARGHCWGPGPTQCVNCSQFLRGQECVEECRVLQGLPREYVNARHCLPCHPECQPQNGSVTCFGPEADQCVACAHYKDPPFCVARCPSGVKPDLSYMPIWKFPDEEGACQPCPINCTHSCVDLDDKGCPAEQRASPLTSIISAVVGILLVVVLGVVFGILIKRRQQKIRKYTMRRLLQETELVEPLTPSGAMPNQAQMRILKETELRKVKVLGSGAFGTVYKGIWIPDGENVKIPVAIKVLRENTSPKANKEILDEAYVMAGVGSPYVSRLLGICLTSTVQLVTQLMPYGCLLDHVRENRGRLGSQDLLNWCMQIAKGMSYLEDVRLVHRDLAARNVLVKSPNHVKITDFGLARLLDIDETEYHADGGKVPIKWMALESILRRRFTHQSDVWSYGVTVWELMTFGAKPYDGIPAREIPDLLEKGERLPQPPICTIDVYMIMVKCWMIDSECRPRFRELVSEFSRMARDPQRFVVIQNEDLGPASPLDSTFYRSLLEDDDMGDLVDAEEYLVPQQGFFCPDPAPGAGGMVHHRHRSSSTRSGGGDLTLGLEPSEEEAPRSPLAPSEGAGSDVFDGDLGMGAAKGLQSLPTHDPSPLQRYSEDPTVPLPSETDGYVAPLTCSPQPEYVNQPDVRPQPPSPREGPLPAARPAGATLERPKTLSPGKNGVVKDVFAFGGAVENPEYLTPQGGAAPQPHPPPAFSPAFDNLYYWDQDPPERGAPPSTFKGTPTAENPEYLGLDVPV

[8] = target: ErbB3 (Homo sapiens, UniProt P21860); assay: KINOMEscan profiling, ErbB3; details: 10 μM
ErbB3, sequence (P21860 20-1342): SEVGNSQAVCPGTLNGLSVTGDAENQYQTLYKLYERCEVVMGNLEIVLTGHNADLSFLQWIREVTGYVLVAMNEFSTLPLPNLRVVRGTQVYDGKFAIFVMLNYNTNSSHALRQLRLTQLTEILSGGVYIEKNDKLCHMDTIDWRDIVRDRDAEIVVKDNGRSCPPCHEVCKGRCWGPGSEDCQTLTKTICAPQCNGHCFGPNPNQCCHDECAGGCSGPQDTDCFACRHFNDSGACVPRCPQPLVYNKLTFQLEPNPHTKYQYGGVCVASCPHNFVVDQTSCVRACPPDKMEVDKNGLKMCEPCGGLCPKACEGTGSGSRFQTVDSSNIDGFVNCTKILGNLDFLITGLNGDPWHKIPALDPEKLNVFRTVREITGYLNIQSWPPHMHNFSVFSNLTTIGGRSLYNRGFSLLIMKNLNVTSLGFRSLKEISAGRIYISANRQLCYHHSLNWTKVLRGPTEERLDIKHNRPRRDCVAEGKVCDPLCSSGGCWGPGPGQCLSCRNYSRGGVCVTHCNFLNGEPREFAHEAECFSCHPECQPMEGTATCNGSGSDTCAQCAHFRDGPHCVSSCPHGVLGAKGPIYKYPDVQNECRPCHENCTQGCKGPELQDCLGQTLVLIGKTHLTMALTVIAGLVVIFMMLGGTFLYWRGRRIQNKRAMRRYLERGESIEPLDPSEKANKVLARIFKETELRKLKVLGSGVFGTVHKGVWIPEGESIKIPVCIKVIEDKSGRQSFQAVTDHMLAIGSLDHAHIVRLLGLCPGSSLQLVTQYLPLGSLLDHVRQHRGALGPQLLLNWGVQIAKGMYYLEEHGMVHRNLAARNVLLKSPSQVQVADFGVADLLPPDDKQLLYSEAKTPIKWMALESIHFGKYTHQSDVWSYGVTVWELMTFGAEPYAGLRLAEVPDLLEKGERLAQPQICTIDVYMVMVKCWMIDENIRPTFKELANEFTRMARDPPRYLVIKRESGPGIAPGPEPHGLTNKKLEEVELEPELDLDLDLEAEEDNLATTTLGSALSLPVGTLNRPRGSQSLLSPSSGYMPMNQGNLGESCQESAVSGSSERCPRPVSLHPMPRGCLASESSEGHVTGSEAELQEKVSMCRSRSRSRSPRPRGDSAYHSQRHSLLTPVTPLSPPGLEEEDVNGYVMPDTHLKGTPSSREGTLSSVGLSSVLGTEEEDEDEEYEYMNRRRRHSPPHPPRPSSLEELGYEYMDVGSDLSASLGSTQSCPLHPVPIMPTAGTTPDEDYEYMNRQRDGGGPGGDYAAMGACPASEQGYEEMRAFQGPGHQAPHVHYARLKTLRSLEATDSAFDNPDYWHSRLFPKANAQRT

[9] = test system: diverse panel of 200 kinases; assay: KINOMEscan ATP-site competition binding, diverse kinase panel profiling; details: 10 μM
[10] = test system: 4T1 cells; assay: 4T1 cell growth in 3D culture; type: cell-based; details: 3 μM GNF-2 added to 10 μM compound 4
[11] = test system: diverse panel of 200 kinases; details: in this panel; cited from earlier work

- pKi [1]: 7.48
- GI50 [2]: 48 µM
- GI50 [3]: > 100 µM
- GI50 [4]: > 100 µM
- GI50 [5]: 14 µM
- inhibition of ErbB2 in profiling [7]: significantly inhibits
- inhibition of ErbB3 in profiling [8]: significantly inhibits
- number of kinases with >95% displacement from an immobilized ligand [9]: 56
- number of kinases with >99% displacement from an immobilized ligand [9]: 24
Compound: CC(C)(C)n1nc(-c2ccc(Cl)cc2)c2c(N)ncnc21 [PP2]
- GI50 [6]: 17 µM

Compound: NC(=O)c1cccc(-c2cc(Nc3ccc(OC(F)(F)F)cc3)ncn2)c1 [GNF-2]
- 4T1 cell proliferation in 3D culture, effect of co-dosing [10]: mitigates effects of compound 4

Compound: Cc1nc(Nc2ncc(C(=O)Nc3c(C)cccc3Cl)s2)cc(N2CCN(CCO)CC2)n1 [dasatinib]
- S35 selectivity score [11]: 0.27
